Converted amounts (≈) assume the structure as drawn. The source made the active and inactive calls. No cut-off for these calls is given here.
Columns and labels:
[1] = biological target: Mitogen-activated protein kinase 14 (Homo sapiens, UniProt Q16539); test: Inhibition of bacterially expressed activated p38alpha pre-incubated 10 mins measured after 45 mins by scintillation counting
PBMC = test: Antiinflammatory activity in human PBMC assessed as inhibition of LPS-induced TNFalpha production after 6 hrs by ELISA; assay type: functional, cell-based
[2] = Aqueous solubility of the compound at pH 6.5; assay type: physicochemical; settings: buffer
LIM domain kinase 1 = LIM domain kinase 1 (Homo sapiens, UniProt P53667); test: Inhibition of LIMK1
LIM domain kinase 2 = LIM domain kinase 2 (Homo sapiens, UniProt P53671); test: Inhibition of LIMK2
[3] = biological target: Serine/threonine-protein kinase MARK2 (Homo sapiens) (UniProt Q7KZI7); test: Inhibition of MARK2 at 10 uM relative to control
[4] = biological target: Death-associated protein kinase 2 (Homo sapiens) (UniProt Q9UIK4); test: Inhibition of DAPK2 at 10 uM relative to control
[5] = biological target: Ephrin type-A receptor 2 (Homo sapiens) (UniProt P29317); test: Inhibition of EPHA2 at 10 uM relative to control
[6] = biological target: Casein kinase I isoform epsilon (Homo sapiens) (UniProt P49674); test: Inhibition of CK1E at 10 uM relative to control
[7] = biological target: Mitogen-activated protein kinase 8 (Homo sapiens) (UniProt P45983); test: Inhibition of JNK1 at 10 uM relative to control
[8] = biological target: Cyclin-dependent kinase 2 (Homo sapiens) (UniProt P24941); test: Inhibition of CDK2 at 10 uM relative to control
[9] = biological target: Tyrosine-protein kinase SYK (Homo sapiens) (UniProt P43405); test: Inhibition of SYK at 10 uM relative to control
[10] = biological target: Serine/threonine-protein kinase pim-1 (Homo sapiens) (UniProt P11309); test: Inhibition of PIM1 at 10 uM relative to control
[11] = biological target: Proto-oncogene tyrosine-protein kinase Src (Homo sapiens) (UniProt P12931); test: Inhibition of SRC at 10 uM relative to control
[12] = biological target: Myosin light chain kinase 2, skeletal/cardiac muscle (Homo sapiens) (UniProt Q9H1R3); test: Inhibition of skeletal muscle MLCK at 10 uM relative to control; settings: Muscle tissue
[13] = biological target: 5'-AMP-activated protein kinase catalytic subunit alpha-1 (Homo sapiens) (UniProt Q13131); test: Inhibition of AMPKA1 at 10 uM relative to control
[14] = biological target: Serine/threonine-protein kinase PAK 4 (Homo sapiens) (UniProt O96013); test: Inhibition of PAK4 at 10 uM relative to control
[15] = biological target: Tyrosine-protein kinase CSK (Homo sapiens) (UniProt P41240); test: Inhibition of CSK at 10 uM relative to control
[16] = biological target: Insulin receptor (Homo sapiens) (UniProt P06213); test: Inhibition of INSR at 10 uM relative to control
[17] = biological target: Platelet-derived growth factor receptor beta (Homo sapiens) (UniProt P09619); test: Inhibition of PDGRB at 10 uM relative to control
[18] = biological target: Serine/threonine-protein kinase 16 (Homo sapiens) (UniProt O75716); test: Inhibition of STK16 at 10 uM relative to control
[19] = biological target: Serine/threonine-protein kinase PAK 1 (Homo sapiens) (UniProt Q13153); test: Inhibition of PAK1 at 10 uM relative to control
[20] = biological target: Aurora kinase A (Homo sapiens) (UniProt O14965); test: Inhibition of aurora A at 10 uM relative to control
[21] = biological target: Mast/stem cell growth factor receptor Kit (Homo sapiens) (UniProt P10721); test: Inhibition of KIT at 10 uM relative to control
[22] = biological target: Insulin-like growth factor 1 receptor (Homo sapiens) (UniProt P08069); test: Inhibition of IGF1R at 10 uM relative to control
[23] = biological target: Serine/threonine-protein kinase PAK 5 (Homo sapiens) (UniProt Q9P286); test: Inhibition of PAK5 at 10 uM relative to control
[24] = biological target: Calcium/calmodulin-dependent protein kinase type 1 (Homo sapiens) (UniProt Q14012); test: Inhibition of CAMK1A at 10 uM relative to control
[25] = biological target: Angiopoietin-1 receptor (Homo sapiens) (UniProt Q02763); test: Inhibition of TIE2 at 10 uM relative to control
[26] = biological target: Cyclin-G-associated kinase (Homo sapiens) (UniProt O14976); test: Inhibition of GAK at 10 uM relative to control
[27] = biological target: Dual specificity protein kinase CLK1 (Homo sapiens) (UniProt P49759); test: Inhibition of CLK1 at 10 uM relative to control
[28] = biological target: Calcium/calmodulin-dependent protein kinase type 1D (Homo sapiens) (UniProt Q8IU85); test: Inhibition of CAMK1D at 10 uM relative to control
[29] = biological target: Mitogen-activated protein kinase 10 (Homo sapiens) (UniProt P53779); test: Inhibition of JNK3 at 10 uM relative to control
[30] = biological target: Epidermal growth factor receptor (Homo sapiens) (UniProt P00533); test: Inhibition of EGFR at 10 uM relative to control
[31] = biological target: Aurora kinase C (Homo sapiens) (UniProt Q9UQB9); test: Inhibition of aurora C at 10 uM relative to control
[32] = Selectivity ratio of IC50 for p38alpha to IC50 for LIMK2
[33] = biological target: Phosphorylase b kinase gamma catalytic chain, skeletal muscle/heart isoform (Homo sapiens) (UniProt Q16816); test: Inhibition of PHKG1 at 10 uM relative to control
[34] = Selectivity ratio of IC50 for p38alpha to IC50 for LIMK1
[35] = biological target: Tyrosine-protein kinase ABL1 (Homo sapiens) (UniProt P00519); test: Inhibition of ABL1 at 10 uM relative to control
[36] = biological target: Vascular endothelial growth factor receptor 2 (Homo sapiens) (UniProt P35968); test: Inhibition of KDR at 10 uM relative to control
[37] = biological target: MAP kinase-interacting serine/threonine-protein kinase 2 (Homo sapiens) (UniProt Q9HBH9); test: Inhibition of MNK2 at 10 uM relative to control
[38] = biological target: Mitogen-activated protein kinase kinase kinase 4 (Homo sapiens) (UniProt Q9Y6R4); test: Inhibition of MAP3K4 at 10 uM relative to control
[39] = biological target: High affinity nerve growth factor receptor (Homo sapiens) (UniProt P04629); test: Inhibition of TRKA at 10 uM relative to control
[40] = biological target: Ephrin type-B receptor 4 (Homo sapiens) (UniProt P54760); test: Inhibition of EPHB4 at 10 uM relative to control
[41] = biological target: Serine/threonine-protein kinase Nek2 (Homo sapiens) (UniProt P51955); test: Inhibition of NEK2 at 10 uM relative to control
[42] = biological target: Fibroblast growth factor receptor 1 (Homo sapiens) (UniProt P11362); test: Inhibition of FGF1R at 10 uM relative to control
[43] = biological target: Receptor-type tyrosine-protein kinase FLT3 (Homo sapiens) (UniProt P36888); test: Inhibition of FLT3 at 10 uM relative to control

Mitogen-activated protein kinase 14, sequence (Q16539 whole entry): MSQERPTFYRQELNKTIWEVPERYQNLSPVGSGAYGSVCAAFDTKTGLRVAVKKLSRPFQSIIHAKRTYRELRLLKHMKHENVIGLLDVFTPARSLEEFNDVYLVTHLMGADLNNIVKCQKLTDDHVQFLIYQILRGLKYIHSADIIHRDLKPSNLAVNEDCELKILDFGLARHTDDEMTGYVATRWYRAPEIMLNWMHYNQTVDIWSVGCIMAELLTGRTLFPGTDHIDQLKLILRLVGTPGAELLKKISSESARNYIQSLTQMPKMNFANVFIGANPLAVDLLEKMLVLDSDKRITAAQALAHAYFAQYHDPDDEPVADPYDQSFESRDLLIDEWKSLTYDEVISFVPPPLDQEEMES
LIM domain kinase 1, sequence (P53667 whole entry, the tested form may be a part): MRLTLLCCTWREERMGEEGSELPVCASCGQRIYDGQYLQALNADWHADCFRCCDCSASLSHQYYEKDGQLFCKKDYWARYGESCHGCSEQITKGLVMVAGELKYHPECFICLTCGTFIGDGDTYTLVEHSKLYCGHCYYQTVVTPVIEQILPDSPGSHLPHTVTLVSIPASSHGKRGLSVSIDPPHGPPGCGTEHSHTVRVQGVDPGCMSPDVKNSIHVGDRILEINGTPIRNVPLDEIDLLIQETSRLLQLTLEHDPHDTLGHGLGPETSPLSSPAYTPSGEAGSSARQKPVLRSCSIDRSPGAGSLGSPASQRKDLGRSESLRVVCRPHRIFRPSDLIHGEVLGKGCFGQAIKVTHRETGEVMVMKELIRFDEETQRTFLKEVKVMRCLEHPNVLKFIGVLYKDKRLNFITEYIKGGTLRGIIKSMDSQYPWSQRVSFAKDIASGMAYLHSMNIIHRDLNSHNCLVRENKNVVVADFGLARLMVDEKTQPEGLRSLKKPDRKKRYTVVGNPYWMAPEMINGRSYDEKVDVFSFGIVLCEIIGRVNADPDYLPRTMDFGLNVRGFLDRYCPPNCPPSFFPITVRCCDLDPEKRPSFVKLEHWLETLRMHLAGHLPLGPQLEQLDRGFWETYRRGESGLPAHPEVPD
LIM domain kinase 2, sequence (P53671 whole entry, the tested form may be a part): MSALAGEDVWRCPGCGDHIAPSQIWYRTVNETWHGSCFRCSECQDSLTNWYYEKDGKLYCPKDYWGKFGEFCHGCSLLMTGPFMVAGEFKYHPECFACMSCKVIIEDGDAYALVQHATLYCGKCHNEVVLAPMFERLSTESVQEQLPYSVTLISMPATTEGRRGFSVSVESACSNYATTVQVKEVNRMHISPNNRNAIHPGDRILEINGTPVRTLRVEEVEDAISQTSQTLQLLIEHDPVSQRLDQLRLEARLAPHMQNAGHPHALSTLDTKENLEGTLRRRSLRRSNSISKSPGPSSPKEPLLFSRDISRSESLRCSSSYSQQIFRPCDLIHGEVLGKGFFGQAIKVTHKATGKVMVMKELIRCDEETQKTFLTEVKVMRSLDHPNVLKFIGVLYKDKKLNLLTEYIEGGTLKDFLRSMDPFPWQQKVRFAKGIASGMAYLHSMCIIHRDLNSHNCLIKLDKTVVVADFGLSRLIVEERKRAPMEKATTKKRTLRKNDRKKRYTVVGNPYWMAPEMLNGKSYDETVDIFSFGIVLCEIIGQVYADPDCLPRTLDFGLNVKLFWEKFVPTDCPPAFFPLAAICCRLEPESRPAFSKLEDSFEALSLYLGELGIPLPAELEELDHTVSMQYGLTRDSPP
Insulin receptor (Homo sapiens), sequence (P06213 28-758 limits assumed): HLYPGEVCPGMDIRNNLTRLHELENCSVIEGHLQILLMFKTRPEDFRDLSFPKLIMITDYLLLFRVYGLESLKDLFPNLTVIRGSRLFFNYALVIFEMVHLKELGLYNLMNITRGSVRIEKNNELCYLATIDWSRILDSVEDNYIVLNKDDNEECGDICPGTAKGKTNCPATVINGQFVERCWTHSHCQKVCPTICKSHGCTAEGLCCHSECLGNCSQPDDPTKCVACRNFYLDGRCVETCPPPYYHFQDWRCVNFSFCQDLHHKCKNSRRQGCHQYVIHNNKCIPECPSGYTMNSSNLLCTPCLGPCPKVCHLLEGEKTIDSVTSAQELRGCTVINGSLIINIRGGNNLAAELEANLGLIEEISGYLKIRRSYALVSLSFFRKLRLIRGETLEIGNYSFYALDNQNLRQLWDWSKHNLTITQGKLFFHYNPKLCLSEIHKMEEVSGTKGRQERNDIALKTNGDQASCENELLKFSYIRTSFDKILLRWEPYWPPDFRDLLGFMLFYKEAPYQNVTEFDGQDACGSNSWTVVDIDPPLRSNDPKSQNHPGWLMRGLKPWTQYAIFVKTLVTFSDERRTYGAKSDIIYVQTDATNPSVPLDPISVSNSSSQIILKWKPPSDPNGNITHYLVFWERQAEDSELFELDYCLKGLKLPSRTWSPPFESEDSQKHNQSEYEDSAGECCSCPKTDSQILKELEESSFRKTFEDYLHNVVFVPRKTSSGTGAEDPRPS
Insulin receptor (Homo sapiens), sequence (P06213 763-1382 limits assumed): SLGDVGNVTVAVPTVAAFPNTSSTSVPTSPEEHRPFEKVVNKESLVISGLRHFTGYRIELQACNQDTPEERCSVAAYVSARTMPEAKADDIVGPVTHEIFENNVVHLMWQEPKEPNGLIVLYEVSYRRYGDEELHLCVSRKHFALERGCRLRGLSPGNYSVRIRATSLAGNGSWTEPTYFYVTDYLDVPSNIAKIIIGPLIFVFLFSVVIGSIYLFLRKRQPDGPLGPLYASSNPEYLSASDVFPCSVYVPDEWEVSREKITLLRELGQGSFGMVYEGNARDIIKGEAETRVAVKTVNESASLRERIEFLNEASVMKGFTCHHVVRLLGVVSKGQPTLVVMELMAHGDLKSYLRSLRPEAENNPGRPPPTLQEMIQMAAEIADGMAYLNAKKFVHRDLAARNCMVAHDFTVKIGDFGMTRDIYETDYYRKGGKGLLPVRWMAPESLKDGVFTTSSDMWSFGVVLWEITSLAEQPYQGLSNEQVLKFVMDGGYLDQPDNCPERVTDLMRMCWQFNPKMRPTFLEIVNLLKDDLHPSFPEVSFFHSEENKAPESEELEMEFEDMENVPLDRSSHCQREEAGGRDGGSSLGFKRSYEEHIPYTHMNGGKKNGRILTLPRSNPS
Mitogen-activated protein kinase 10 (Homo sapiens), sequence (P53779 whole entry): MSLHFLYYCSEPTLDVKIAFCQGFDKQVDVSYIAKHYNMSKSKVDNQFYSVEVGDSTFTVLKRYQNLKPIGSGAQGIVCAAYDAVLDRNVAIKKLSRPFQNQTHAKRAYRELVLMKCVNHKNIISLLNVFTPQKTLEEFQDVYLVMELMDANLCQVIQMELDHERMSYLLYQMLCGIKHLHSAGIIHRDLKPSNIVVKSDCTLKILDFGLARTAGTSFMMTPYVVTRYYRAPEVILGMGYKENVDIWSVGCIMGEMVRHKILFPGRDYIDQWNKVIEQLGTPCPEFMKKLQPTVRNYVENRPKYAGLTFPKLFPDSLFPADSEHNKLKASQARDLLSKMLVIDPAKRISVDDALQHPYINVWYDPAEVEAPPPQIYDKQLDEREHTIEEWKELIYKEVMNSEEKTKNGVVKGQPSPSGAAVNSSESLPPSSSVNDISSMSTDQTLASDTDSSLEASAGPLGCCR
High affinity nerve growth factor receptor (Homo sapiens), sequence (P04629 33-796 limits assumed): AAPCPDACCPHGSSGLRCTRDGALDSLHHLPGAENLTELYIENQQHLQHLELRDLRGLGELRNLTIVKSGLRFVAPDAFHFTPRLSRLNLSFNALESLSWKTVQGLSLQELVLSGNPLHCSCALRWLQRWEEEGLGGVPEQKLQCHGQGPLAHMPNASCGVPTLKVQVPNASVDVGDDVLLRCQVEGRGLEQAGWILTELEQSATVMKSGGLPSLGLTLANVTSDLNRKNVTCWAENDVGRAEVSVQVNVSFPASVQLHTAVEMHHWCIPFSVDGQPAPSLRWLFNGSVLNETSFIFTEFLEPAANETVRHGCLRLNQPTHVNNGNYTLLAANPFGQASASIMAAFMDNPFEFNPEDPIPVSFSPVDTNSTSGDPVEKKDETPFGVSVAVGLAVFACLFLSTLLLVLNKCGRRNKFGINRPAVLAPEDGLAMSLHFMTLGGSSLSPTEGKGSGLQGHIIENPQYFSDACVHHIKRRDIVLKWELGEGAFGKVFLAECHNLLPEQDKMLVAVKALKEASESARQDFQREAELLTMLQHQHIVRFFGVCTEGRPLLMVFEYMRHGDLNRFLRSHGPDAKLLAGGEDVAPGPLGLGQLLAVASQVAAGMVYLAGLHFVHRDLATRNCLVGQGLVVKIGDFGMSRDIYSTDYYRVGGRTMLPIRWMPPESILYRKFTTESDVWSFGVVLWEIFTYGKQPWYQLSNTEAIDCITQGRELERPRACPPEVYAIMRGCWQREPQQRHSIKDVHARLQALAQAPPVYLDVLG
Fibroblast growth factor receptor 1 (Homo sapiens), sequence (P11362 22-822 limits assumed): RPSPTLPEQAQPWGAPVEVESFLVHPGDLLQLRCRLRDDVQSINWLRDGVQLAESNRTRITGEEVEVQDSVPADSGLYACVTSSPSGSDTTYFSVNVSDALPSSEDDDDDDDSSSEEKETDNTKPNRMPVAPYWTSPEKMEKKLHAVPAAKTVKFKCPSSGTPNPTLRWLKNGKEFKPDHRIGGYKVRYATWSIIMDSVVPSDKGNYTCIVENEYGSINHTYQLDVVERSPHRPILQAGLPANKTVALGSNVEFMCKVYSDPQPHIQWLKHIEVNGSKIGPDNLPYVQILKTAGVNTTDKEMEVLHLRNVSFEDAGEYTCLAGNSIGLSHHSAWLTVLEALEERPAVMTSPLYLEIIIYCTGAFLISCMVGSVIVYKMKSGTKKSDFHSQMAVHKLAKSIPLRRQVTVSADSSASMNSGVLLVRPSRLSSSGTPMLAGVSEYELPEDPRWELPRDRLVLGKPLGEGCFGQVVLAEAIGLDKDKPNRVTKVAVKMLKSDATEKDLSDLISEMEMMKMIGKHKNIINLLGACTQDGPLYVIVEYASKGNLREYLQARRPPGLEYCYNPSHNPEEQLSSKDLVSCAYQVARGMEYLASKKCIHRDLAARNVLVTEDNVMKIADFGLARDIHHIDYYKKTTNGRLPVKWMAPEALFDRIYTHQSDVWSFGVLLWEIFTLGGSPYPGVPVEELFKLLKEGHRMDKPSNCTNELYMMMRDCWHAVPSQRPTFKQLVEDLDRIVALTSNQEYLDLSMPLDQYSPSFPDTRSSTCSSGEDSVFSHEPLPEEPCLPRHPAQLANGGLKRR

CCCNc1ncc(-c2cc(-c3ccccc3F)nc(-c3ccccn3)n2)s1
IC50 [1]: 0.052 µM
IC50 (PBMC): 0.062 µM

CCCNc1ncc(-c2cc(-c3ccc(OCC)cc3Cl)nc(-c3ccccn3)n2)s1
IC50 [1]: 3.94 µM

CC(C)Nc1ncc(-c2cc(-c3ccccc3CNC(=O)NC3CC3)nc(NCCN(C)C)n2)s1
IC50 [1]: 0.016 µM
IC50 (PBMC): 0.011 µM

CCCNc1ncc(-c2cc(-c3ccccc3Cl)nc(-c3ccccn3)n2)s1
IC50 [1]: 0.022 µM
IC50 (PBMC): 0.017 µM

CC(C)Nc1ncc(-c2cc(-c3ccccc3Cl)nc(-c3ccccn3)n2)s1
solubility [2]: < 5 ng/mL
IC50 (LIM domain kinase 1): 0.252 µM
IC50 (LIM domain kinase 2): 0.362 µM
IC50 [1]: 0.004 µM
IC50 (PBMC): 0.021 µM

CCCNc1ncc(-c2cc(-c3ccccc3F)nc(C)n2)s1
IC50 [1]: 0.52 µM

CC(C)Nc1ncc(-c2ccnc(-c3ccccc3Cl)n2)s1
IC50 [1]: 0.223 µM

CC(C)Nc1ncc(-c2cc(-c3ccccc3Cl)nc(NCCO)n2)s1
IC50 [1]: 0.008 µM
IC50 (PBMC): 0.008 µM

CC(C)Nc1ncc(-c2cc(-c3ccccc3Cl)nc(N)n2)s1
IC50 [1]: 0.016 µM
IC50 (PBMC): > 0.25 µM

CCCNc1ncc(-c2ccnc(C3CC3)n2)s1
IC50 [1]: > 1 µM

CCNc1ncc(-c2cc(-c3ccccc3Cl)nc(-c3ccccn3)n2)s1
IC50 [1]: 0.017 µM
IC50 (PBMC): 0.119 µM

CC(C)Nc1ncc(-c2cc(-c3ccccc3Cl)nc(N(C)C)n2)s1
IC50 [1]: 0.573 µM

Nc1ncc(-c2cc(-c3ccccc3Cl)nc(-c3ccccn3)n2)s1
IC50 [1]: 0.114 µM

CC(C)Nc1ncc(-c2cc(-c3ccccc3Cl)nc(NCCN(C)C)n2)s1
solubility [2]: 994 ng/mL (≈ 2.38 µM)
IC50 (LIM domain kinase 1): 0.00401 µM
IC50 (LIM domain kinase 2): 0.00305 µM
IC50 [1]: 0.005 µM
IC50 (PBMC): 0.001 µM

CCCNc1ncc(-c2cc(-c3ccc(F)cc3Cl)nc(-c3ccccn3)n2)s1
IC50 [1]: 0.042 µM
IC50 (PBMC): 0.017 µM

CCCNc1ncc(-c2cc(-c3ccccc3F)nc(C3CC3)n2)s1
IC50 [1]: > 1 µM

CCCNc1ncc(-c2ccnc(-c3ccccn3)n2)s1
IC50 [1]: 0.314 µM

CCNC(=O)NCc1ccccc1-c1cc(-c2cnc(NC(C)C)s2)nc(NCCN(C)C)n1
inhibition [3]: inactive
inhibition [4]: inactive
solubility [2]: 5940 ng/mL (≈ 12.3 µM)
inhibition [5]: inactive
inhibition [6]: inactive
inhibition [7]: 24.9%
inhibition [8]: inactive
inhibition [9]: inactive
inhibition [10]: inactive
inhibition [11]: inactive
inhibition [12]: inactive
inhibition [13]: inactive
inhibition [14]: inactive
inhibition [15]: inactive
inhibition [16]: inactive
inhibition [17]: 11.3%
inhibition [18]: inactive
inhibition [19]: inactive
inhibition [20]: inactive
inhibition [21]: 14.5%
inhibition [22]: inactive
inhibition [23]: inactive
inhibition [24]: inactive
inhibition [25]: inactive
inhibition [26]: inactive
inhibition [27]: inactive
inhibition [28]: inactive
inhibition [29]: 0.2%
inhibition [30]: inactive
inhibition [31]: inactive
Selectivity ratio [32]: > 10000
inhibition [33]: inactive
Selectivity ratio [34]: > 10000
inhibition [35]: inactive
inhibition [36]: inactive
inhibition [37]: inactive
inhibition [38]: inactive
IC50 (PBMC): 0.003 µM
inhibition [39]: inactive
inhibition [40]: inactive
inhibition [41]: inactive
inhibition [42]: inactive
inhibition [43]: inactive

CC[C@@H](C)Nc1ncc(-c2cc(-c3ccccc3Cl)nc(-c3ccccn3)n2)s1
solubility [2]: < 5 ng/mL
IC50 [1]: 0.005 µM
IC50 (PBMC): 0.013 µM

CCCNc1ncc(-c2ccnc(-c3ccccc3F)n2)s1
IC50 [1]: > 30 µM

CCCNc1ncc(-c2cc(-c3ccccc3OCC)nc(-c3ccccn3)n2)s1
IC50 [1]: 0.859 µM

Clc1ccccc1-c1cc(-c2cnc(NC3CC3)s2)nc(-c2ccccn2)n1
IC50 [1]: 0.017 µM
IC50 (PBMC): 0.022 µM

CCCNc1ncc(-c2cc(-c3ccccc3F)nc(N)n2)s1
IC50 [1]: 0.225 µM

CC(C)Nc1ncc(-c2cc(-c3ccccc3Cl)nc(NCC(O)CO)n2)s1 (stereo not given)
IC50 [1]: 0.006 µM
IC50 (PBMC): 0.011 µM

CCCNc1ncc(-c2cc(-c3ccc(F)cc3)nc(-c3ccccn3)n2)s1
IC50 [1]: 0.052 µM

Clc1ccccc1-c1cc(-c2cnc(NC3CCC3)s2)nc(-c2ccccn2)n1
IC50 [1]: 0.016 µM
IC50 (PBMC): 0.028 µM

CC(C)Nc1ncc(-c2cc(-c3ccccc3Cl)ncn2)s1
IC50 [1]: 0.046 µM
IC50 (PBMC): 0.031 µM

CC[C@H](C)Nc1ncc(-c2cc(-c3ccccc3Cl)nc(-c3ccccn3)n2)s1
solubility [2]: < 5 ng/mL
IC50 [1]: 0.008 µM
IC50 (PBMC): 0.031 µM

CNC(=O)NCc1ccccc1-c1cc(-c2cnc(NC(C)C)s2)nc(NCCN(C)C)n1
IC50 [1]: 0.002 µM
IC50 (PBMC): 0.012 µM

Reference: ChEMBL document CHEMBL1255531, “Utilization of a nitrogen-sulfur nonbonding interaction in the design of new 2-aminothiazol-5-yl-pyrimidines as p38α MAP kinase inhibitors” (Bioorg Med Chem Lett, 2010)
